Test results: patent publication US20250345284A1, “LIPID NANOPARTICLE (LNP) COMPOSITIONS AND METHODS OF USE THEREOF” (The Trustees Of The University of Pennsylvania, priority 2021, published 2025)

How the values were obtained:
[1] = Stability of 100% hydroxycholesterol substitution LNPs over 28 days; conditions: 100% substitution of hydroxycholesterol for cholesterol, vs S2
From the text: FIG. 8B depicts measurements of z-average diameter, PDI, mRNA concentration, and encapsulation efficiency for S2 LNPs and LNP formulations with 100% cholesterol substitution taken over 28 days to assess LNP stability. […] Error bars denote standard deviation. FIG. 8C depicts the pKa, zeta potential, z-average diameter, and PDI measurements for the exemplary LNPs of the present disclosure. n=3. Error bars denote standard deviation.
Characterization parameters assessed over the 28-day period include z-average diameter, PDI, mRNA concentration, and encapsulation efficiency (Table 3).

[2] = Z-average diameter and polydispersity index by dynamic light scattering (Zetasizer Nano); assay type: physicochemical; conditions: LNPs with 12.5%, 25% and 50% substitution of the named hydroxycholesterol

| Structure (SMILES) | stability (all characterization parameters) [1] | PDI (in words) [2] | z-average diameter (in words) [2] |
| --- | --- | --- | --- |
| CC(C)CCC[C@@H](C)[C@H]1CC[C@H]2[C@@H]3[C@H](O)C=C4C[C@@H](O)CC[C@]4(C)[C@H]3CC[C@]12C [A1, 7α-hydroxycholesterol] | comparable on all parameters on all days to S2 | remained within expected ranges | remained within expected ranges |
| CC(C)CCC[C@@H](C)[C@H]1CC[C@H]2[C@@H]3[C@@H](O)C=C4C[C@@H](O)CC[C@]4(C)[C@H]3CC[C@]12C [A2, 7β-hydroxycholesterol] | comparable on all parameters on all days to S2 | remained within expected ranges | remained within expected ranges |
| CC(C)CCC[C@@H](C)[C@H]1CC[C@H]2[C@@H]3CC=C4C[C@@H](O)CC[C@]4(CO)[C@H]3CC[C@]12C [A3, 19-hydroxycholesterol] | – | remained within expected ranges | remained within expected ranges |
| CC(C)CCC[C@](C)(O)[C@H]1CC[C@H]2[C@@H]3CC=C4C[C@@H](O)CC[C@]4(C)[C@H]3CC[C@@]21C [B1, 20 (S)-hydroxycholesterol] | comparable on all parameters on all days to S2 | remained within expected ranges | remained within expected ranges |
| CC(C)[C@@H](O)CC[C@@H](C)[C@H]1CC[C@H]2[C@@H]3CC=C4C[C@@H](O)CC[C@]4(C)[C@H]3CC[C@]12C [B2, 24 (S)-hydroxycholesterol] | – | more polydisperse | increased particle diameters |
| C[C@H](CCCC(C)(C)O)[C@H]1CC[C@H]2[C@@H]3CC=C4C[C@@H](O)CC[C@]4(C)[C@H]3CC[C@]12C [B3, 25-hydroxycholesterol] | – | more polydisperse | increased particle diameters |
